pIC50: −log10 of the molar value. Where a name gives a salt, the structure may show the parent alone.
Tests used:
Assay in all cases: PI3K enzyme inhibitory activity in the cell free assay (ADP-Glo Kinase Assay)
Type in all cases: biochemical
PI3Kα = target: T1, PI3Kα (Homo sapiens, UniProt P42336); conditions: human recombinant PI3Kα, ATP 50 μM; read-out: PI3K alpha inhibition
T1 construct: purchased Millipore Ltd (Billerica, Mass.)

PI3Kδ = target: T2, PI3Kδ (Homo sapiens, UniProt O00329); conditions: human recombinant PI3Kδ, ATP 80 μM; read-out: PI3K delta inhibition
T2 construct: purchased Millipore Ltd (Billerica, Mass.)
T2 sequence (O00329 1-1044): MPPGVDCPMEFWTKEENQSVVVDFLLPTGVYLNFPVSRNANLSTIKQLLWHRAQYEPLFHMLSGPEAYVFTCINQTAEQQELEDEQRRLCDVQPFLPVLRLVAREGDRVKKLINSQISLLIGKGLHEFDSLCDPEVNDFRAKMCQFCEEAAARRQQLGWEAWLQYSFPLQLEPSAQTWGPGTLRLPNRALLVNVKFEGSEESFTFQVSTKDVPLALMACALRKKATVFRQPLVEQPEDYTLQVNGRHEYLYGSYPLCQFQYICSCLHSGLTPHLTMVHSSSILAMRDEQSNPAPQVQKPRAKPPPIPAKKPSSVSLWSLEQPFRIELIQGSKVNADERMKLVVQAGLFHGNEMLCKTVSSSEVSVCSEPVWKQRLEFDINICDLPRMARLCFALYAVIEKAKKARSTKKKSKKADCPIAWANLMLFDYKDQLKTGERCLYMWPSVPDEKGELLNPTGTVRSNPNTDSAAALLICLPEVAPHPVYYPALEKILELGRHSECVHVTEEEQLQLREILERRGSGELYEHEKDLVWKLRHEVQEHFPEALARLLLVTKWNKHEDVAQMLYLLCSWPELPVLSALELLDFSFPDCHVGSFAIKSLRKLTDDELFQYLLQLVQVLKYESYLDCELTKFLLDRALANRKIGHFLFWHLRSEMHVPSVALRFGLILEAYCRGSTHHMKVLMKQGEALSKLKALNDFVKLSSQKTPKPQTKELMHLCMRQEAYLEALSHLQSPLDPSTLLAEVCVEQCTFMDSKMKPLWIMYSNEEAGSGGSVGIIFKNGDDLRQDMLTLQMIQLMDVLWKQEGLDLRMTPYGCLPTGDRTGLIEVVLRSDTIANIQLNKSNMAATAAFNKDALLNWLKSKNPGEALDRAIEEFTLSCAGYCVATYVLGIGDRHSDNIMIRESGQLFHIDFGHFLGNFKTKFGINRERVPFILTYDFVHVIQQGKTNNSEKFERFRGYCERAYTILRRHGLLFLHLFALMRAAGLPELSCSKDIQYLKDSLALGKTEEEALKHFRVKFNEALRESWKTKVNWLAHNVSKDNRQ

PI3Kγ = target: T3, PI3Kγ (Homo sapiens, UniProt P48736); conditions: human recombinant PI3Kγ, ATP 30 μM; read-out: PI3K gamma inhibition
T3 construct: purchased Millipore Ltd (Billerica, Mass.)
T3 sequence (P48736 whole entry): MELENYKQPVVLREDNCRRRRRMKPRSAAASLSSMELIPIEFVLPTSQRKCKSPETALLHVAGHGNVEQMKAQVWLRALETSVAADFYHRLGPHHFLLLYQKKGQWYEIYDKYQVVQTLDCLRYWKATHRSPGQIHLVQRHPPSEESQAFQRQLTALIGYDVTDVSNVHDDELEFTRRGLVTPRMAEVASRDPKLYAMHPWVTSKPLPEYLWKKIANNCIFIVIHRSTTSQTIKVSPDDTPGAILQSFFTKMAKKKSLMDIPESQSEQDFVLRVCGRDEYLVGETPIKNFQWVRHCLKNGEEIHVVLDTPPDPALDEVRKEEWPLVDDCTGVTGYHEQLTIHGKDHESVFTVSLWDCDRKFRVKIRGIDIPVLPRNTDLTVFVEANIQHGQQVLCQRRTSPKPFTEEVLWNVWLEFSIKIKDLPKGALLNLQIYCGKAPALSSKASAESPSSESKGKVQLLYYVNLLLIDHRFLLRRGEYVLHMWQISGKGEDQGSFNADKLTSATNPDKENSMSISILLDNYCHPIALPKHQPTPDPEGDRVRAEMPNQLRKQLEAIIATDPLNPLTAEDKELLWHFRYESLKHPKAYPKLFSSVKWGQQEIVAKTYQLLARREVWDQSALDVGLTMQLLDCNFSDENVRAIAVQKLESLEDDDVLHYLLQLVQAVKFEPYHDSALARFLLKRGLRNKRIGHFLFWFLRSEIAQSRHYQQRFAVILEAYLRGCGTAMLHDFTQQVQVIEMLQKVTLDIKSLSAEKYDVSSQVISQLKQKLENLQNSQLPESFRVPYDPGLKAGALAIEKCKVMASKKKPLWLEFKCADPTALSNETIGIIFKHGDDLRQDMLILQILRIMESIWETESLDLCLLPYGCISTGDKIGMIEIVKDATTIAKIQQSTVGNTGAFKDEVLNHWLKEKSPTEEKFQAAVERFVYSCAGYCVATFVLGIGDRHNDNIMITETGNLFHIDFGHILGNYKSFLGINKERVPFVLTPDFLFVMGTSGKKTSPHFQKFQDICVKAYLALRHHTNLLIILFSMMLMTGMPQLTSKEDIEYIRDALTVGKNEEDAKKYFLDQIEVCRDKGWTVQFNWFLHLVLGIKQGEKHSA

PI3Kβ = target: T4, PI3Kβ (Homo sapiens, UniProt P42338); conditions: human recombinant PI3Kβ, ATP 100 μM; read-out: PI3K beta inhibition
T4 construct: purchased Millipore Ltd (Billerica, Mass.)
T4 sequence (P42338 whole entry): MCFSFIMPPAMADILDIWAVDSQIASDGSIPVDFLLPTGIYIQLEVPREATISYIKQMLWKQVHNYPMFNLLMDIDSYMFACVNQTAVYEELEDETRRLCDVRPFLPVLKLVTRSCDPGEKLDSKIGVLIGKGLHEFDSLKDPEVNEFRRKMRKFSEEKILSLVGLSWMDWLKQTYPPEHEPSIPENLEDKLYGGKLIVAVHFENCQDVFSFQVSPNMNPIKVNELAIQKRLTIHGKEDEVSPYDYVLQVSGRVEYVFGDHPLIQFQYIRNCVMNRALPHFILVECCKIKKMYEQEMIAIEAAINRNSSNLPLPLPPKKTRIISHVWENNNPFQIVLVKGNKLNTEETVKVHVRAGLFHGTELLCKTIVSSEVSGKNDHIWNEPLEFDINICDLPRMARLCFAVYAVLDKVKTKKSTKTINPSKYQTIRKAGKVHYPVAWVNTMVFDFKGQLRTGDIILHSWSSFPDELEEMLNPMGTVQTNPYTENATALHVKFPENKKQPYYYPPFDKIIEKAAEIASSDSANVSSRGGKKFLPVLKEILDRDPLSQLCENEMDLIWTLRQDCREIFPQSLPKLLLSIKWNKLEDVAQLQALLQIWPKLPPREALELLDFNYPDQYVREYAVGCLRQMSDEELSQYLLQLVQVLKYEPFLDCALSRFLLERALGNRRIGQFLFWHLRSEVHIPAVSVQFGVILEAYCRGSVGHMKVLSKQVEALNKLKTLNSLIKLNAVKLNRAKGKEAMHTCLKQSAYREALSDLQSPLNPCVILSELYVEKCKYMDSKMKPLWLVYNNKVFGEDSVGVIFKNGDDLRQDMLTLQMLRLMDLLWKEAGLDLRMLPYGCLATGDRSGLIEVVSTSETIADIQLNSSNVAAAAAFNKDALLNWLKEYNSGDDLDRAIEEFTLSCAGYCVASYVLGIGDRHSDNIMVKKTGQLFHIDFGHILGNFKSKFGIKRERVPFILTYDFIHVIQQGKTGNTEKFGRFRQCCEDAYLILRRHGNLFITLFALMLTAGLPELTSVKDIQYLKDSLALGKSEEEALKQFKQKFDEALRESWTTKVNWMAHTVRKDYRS

T1 sequence (P42336 whole entry): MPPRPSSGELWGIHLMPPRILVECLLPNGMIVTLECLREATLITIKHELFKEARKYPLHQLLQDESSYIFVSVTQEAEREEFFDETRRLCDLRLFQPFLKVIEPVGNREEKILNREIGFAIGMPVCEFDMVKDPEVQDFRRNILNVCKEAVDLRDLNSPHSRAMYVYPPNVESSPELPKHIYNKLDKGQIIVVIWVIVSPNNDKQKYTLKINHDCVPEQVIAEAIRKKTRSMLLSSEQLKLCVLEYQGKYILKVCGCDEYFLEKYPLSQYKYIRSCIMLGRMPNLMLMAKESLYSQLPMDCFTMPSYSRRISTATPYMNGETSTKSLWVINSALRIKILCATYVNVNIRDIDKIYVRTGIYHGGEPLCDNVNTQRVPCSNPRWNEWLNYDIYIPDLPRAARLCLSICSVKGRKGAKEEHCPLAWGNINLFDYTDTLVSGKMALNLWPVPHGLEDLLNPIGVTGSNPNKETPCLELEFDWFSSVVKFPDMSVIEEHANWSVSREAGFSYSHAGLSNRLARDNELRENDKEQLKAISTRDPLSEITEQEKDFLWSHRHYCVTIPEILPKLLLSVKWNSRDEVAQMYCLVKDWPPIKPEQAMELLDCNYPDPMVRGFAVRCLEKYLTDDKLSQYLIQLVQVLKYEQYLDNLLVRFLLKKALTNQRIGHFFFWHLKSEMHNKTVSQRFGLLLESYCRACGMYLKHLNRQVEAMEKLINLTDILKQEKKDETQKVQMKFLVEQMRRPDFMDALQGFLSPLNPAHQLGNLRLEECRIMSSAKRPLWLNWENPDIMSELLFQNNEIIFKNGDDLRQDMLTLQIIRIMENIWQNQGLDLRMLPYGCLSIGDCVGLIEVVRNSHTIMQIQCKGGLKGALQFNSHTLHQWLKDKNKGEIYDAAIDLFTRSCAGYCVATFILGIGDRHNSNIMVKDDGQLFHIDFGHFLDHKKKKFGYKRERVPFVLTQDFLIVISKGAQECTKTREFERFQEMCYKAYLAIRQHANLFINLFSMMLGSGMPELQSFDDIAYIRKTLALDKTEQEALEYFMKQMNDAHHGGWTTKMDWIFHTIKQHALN

pIC50 (PI3Kα)	pIC50 (PI3Kδ)	pIC50 (PI3Kγ)	pIC50 (PI3Kβ)	SMILES
6.00 to 8.00	> 8.00	6.00 to 8.00	> 8.00	CC(c1oc(=O)c2ccccc2c1C1=CCN(C)CC1)n1nc(-c2cncc(O)c2)c2c(N)ncnc21 (stereo not drawn) [Example 175, 3-(1-(4-amino-3-(5-hydroxypyridin-3-yl)-1H-pyrazolo[3,4-d]pyrimidin-1-yl)ethyl)-4-(1-methyl-1,2,3,6-tetrahydropyridin-4-yl)-1H-isochromen-1-one hydrochloride]
6.00 to 8.00	6.00 to 8.00	6.00 to 8.00	6.00 to 8.00	CC(C)N1CCC=C(c2c(C(C)n3nc(-c4cc(O)cc(F)c4)c4c(N)ncnc43)oc(=O)c3ccccc23)C1 (stereo not drawn) [Example 174, 3-(1-(4-amino-3-(3-fluoro-5-hydroxyphenyl)-1H-pyrazolo[3,4-d]pyrimidin-1-yl)ethyl)-4-(1-isopropyl-1,2,5,6-tetrahydropyridin-3-yl)-1H-isochromen-1-one hydrochloride]
< 6.00	> 8.00	6.00 to 8.00	6.00 to 8.00	CC(c1oc(=O)c2ccccc2c1-c1ccccc1)n1nc(I)c2c(N)ncnc21 (stereo not drawn) [Int D2, 3-(1-(4-Amino-3-iodo-1H-pyrazolo[3,4-d]pyrimidin-1-yl)ethyl)-4-phenyl-1H-isochromen-1-one]

Further lines, the compound ahead of its results:

SMILES	pIC50 (PI3Kα)	pIC50 (PI3Kδ)	pIC50 (PI3Kγ)	pIC50 (PI3Kβ)
CC(c1oc(=O)c2ccc(Cl)cc2c1-c1ccccc1)n1nc(-c2cc(O)cc(F)c2)c2c(N)ncnc21 (stereo not drawn) [Example 164, 3-(1-(4-amino-3-(3-fluoro-5-hydroxyphenyl)-1H-pyrazolo[3,4-d]pyrimidin-1-yl)ethyl)-6-chloro-4-phenyl-1H-isochromen-1-one]	< 6.00	> 8.00	6.00 to 8.00	6.00 to 8.00
CC(c1oc(=O)c2ccccc2c1C1=CC(C)(C)NC(C)(C)C1)n1nc(-c2cncc(O)c2)c2c(N)ncnc21 (stereo not drawn) [Example 145, 3-(1-(4-amino-3-(5-hydroxypyridin-3-yl)-1H-pyrazolo[3,4-d]pyrimidin-1-yl)ethyl)-4-(2,2,6,6-tetramethyl-1,2,3,6-tetrahydropyridin-4-yl)-1H-isochromen-1-one dihydrochloride]	6.00 to 8.00	> 8.00	6.00 to 8.00	6.00 to 8.00
CC(c1oc(=O)c2ccccc2c1-c1cccc(N(C)C)c1)n1nc(-c2cc(O)cc(F)c2)c2c(N)ncnc21 (stereo not drawn) [Example 119, 3-(1-(4-amino-3-(3-fluoro-5-hydroxyphenyl)-1H-pyrazolo[3,4-d]pyrimidin-1-yl)ethyl)-4-(3-(dimethylamino)phenyl)-1H-isochromen-1-one]	< 6.00	6.00 to 8.00	6.00 to 8.00	< 6.00
CC(c1oc(=O)c2ccccc2c1C1=CCN(CC2CC2)CC1)n1nc(-c2cc(O)cc(F)c2)c2c(N)ncnc21 (stereo not drawn) [Example 66, 3-(1-(4-amino-3-(3-fluoro-5-hydroxyphenyl)-1H-pyrazolo[3,4-d]pyrimidin-1-yl)ethyl)-4-(1-(cyclopropylmethyl)-1,2,3,6-tetrahydropyridin-4-yl)-1H-isochromen-1-one hydrochloride]	6.00 to 8.00	> 8.00	6.00 to 8.00	6.00 to 8.00
CC(c1oc(=O)c2ccccc2c1-c1cncs1)n1nc(-c2cc(O)cc(F)c2)c2c(N)ncnc21 (single isomer, unassigned) [Example 167b, 3-(1-(4-amino-3-(3-fluoro-5-hydroxyphenyl)-1H-pyrazolo[3,4-d]pyrimidin-1-yl)ethyl)-4-(thiazol-5-yl)-1H-isochromen-1-one single enantiomer]	< 6.00	> 8.00	6.00 to 8.00	6.00 to 8.00
CC(=O)Nc1ncc(-c2nn(C(C)c3oc(=O)c4ccccc4c3-c3ccccc3)c3ncnc(N)c23)s1 (stereo not drawn) [Example 62, N-(5-(4-amino-1-(1-(1-oxo-4-phenyl-1H-isochromen-3-yl)ethyl)-1H-pyrazolo[3,4-d]pyrimidin-3-yl)thiazol-2-yl)acetamide]	6.00 to 8.00	> 8.00	6.00 to 8.00	6.00 to 8.00
